System: 755483-174-R-J1-PDC complex spheroid growth, percent test/control
Experiment: Anticancer human tumor 755483-174-R-J1-PDC patient-derived rhabdomyosarcoma cell line growth inhibition [Asc]
Conditions: for IC50: curve of first compound; for viability, T/C: stronger effect = lower value; active = viability on the fitted dose curve at most 10% of control; inactive = the rest
Procedure, shortened: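 Complex spheroids combining tumor cells with HUVEC endothelial cells and human MSCs, at 37 degrees C, 5% CO2; agents tested alone or combined, half-log dilutions from at or near clinical Cmax, or 10 microM if Cmax unknown.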

[1] = second compound 0.1 µM, first compound 0.0316 µM
[2] = second compound 0.1 µM, first compound 0.1 µM
[3] = second compound 0.1 µM, first compound 0.316 µM
[4] = second compound 0.1 µM, first compound 1 µM
[5] = second compound 0.316 µM, first compound 0.0316 µM
[6] = second compound 0.316 µM, first compound 0.1 µM
[7] = second compound 0.316 µM, first compound 0.316 µM
[8] = second compound 0.316 µM, first compound 1 µM
[9] = second compound 1 µM, first compound 0.0316 µM
[10] = second compound 1 µM, first compound 0.1 µM
[11] = second compound 1 µM, first compound 0.316 µM
[12] = second compound 1 µM, first compound 1 µM
[13] = second compound 3.16 µM, first compound 0.0316 µM
[14] = second compound 3.16 µM, first compound 0.1 µM
[15] = second compound 3.16 µM, first compound 0.316 µM
[16] = second compound 3.16 µM, first compound 1 µM
[17] = second compound 10 µM, first compound 0.0316 µM
[18] = second compound 10 µM, first compound 0.1 µM
[19] = second compound 10 µM, first compound 0.316 µM
[20] = second compound 10 µM, first compound 1 µM
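Note: spheroids exposed to compounds for seven days before readout.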

C#Cc1c(F)ccc2cc(O)cc(-c3ncc4c(N5CC6CCC(C5)N6)nc(OCC56CCCN5CC(F)C6)nc4c3F)c12 (stereo not given) + Cc1c(S(C)(=O)=O)c(-c2cc(F)cc(N3CCN(c4ccc(NS(=O)(=O)c5ccc(NC(CCN6CCC(C(=O)OCCCP(=O)(O)O)CC6)CSc6ccccc6)c(S(=O)(=O)C(F)(F)F)c5)cc4)CC3)c2)c(-c2ccc(Cl)cc2)n1C(C)C
1200 nM: IC50 (second compound 0.1 µM)
1280 nM: IC50 (second compound 0.316 µM)
< 31.6 nM: IC50 (second compound 1 µM) | IC50 (second compound 3.16 µM) | IC50 (second compound 10 µM)
inactive: viability, T/C [1] 60.1% | viability, T/C [2] 65.8% | viability, T/C [3] 67.2% | viability, T/C [4] 47.9% | viability, T/C (second compound 0.1 µM, first compound 3.16 µM) 36.6% | viability, T/C (second compound 0.1 µM, first compound 10 µM) 12.6% | viability, T/C [5] 49% | viability, T/C [6] 63.5% | viability, T/C [7] 47.6% | viability, T/C [8] 55.4% | viability, T/C (second compound 0.316 µM, first compound 3.16 µM) 35.8% | viability, T/C (second compound 0.316 µM, first compound 10 µM) 10.3% | viability, T/C [9] 44.9% | viability, T/C [10] 49.5% | viability, T/C [11] 39.1% | viability, T/C [12] 39.1% | viability, T/C (second compound 1 µM, first compound 3.16 µM) 27.3% | viability, T/C [13] 42.3% | viability, T/C [14] 36.8% | viability, T/C [15] 41.5% | viability, T/C [16] 33.6% | viability, T/C (second compound 3.16 µM, first compound 3.16 µM) 23.8% | viability, T/C [17] 37.9% | viability, T/C [18] 35.3% | viability, T/C [19] 45.4% | viability, T/C [20] 35.9% | viability, T/C (second compound 10 µM, first compound 3.16 µM) 20.8% | viability, T/C (second compound 10 µM, first compound 10 µM) 17.5%
active: viability, T/C (second compound 1 µM, first compound 10 µM) 5.81% | viability, T/C (second compound 3.16 µM, first compound 10 µM) 4.86%

CNC(C)C(=O)NC1CN(S(=O)(=O)c2cccc(S(=O)(=O)N3CCC4CCC(C(=O)NC(c5ccccc5)c5ccccc5)N4C(=O)C(NC(=O)C(C)NC)C3)c2)CCC2CCC(C(=O)NC(c3ccccc3)c3ccccc3)N2C1=O (stereo not given) + Cc1c(S(C)(=O)=O)c(-c2cc(F)cc(N3CCN(c4ccc(NS(=O)(=O)c5ccc(NC(CCN6CCC(C(=O)OCCCP(=O)(O)O)CC6)CSc6ccccc6)c(S(=O)(=O)C(F)(F)F)c5)cc4)CC3)c2)c(-c2ccc(Cl)cc2)n1C(C)C
inactive: viability, T/C (second compound 0.1 µM, first compound 0.00316 µM) 27.1% | viability, T/C (second compound 0.1 µM, first compound 0.01 µM) 20% | viability, T/C [1] 39.1% | viability, T/C [2] 20.2% | viability, T/C [3] 13.6% | viability, T/C [4] 12.2% | viability, T/C (second compound 0.316 µM, first compound 0.00316 µM) 36.2% | viability, T/C (second compound 0.316 µM, first compound 0.01 µM) 24.1% | viability, T/C [5] 15.8% | viability, T/C [6] 24.4% | viability, T/C [7] 14.7% | viability, T/C [8] 12.1% | viability, T/C (second compound 1 µM, first compound 0.00316 µM) 29.8% | viability, T/C (second compound 1 µM, first compound 0.01 µM) 23.5% | viability, T/C [9] 18.2% | viability, T/C [10] 22.5% | viability, T/C [11] 11.4% | viability, T/C [12] 10.7% | viability, T/C (second compound 3.16 µM, first compound 0.00316 µM) 23.7% | viability, T/C (second compound 3.16 µM, first compound 0.01 µM) 15.9% | viability, T/C [13] 16.7% | viability, T/C [14] 12% | viability, T/C [15] 9.91% | viability, T/C [16] 26.8% | viability, T/C (second compound 10 µM, first compound 0.00316 µM) 26.3% | viability, T/C (second compound 10 µM, first compound 0.01 µM) 14.5% | viability, T/C [17] 16.1% | viability, T/C [18] 14.2% | viability, T/C [19] 16.2% | viability, T/C [20] 7.68%
< 3.16 nM: IC50 (second compound 0.1 µM) | IC50 (second compound 0.316 µM) | IC50 (second compound 1 µM) | IC50 (second compound 3.16 µM) | IC50 (second compound 10 µM)

Cc1nc(N2CCC3(CC2)COC(C)C3N)c(CO)nc1Sc1ccnc(N)c1Cl (stereo not given) + Cc1c(S(C)(=O)=O)c(-c2cc(F)cc(N3CCN(c4ccc(NS(=O)(=O)c5ccc(NC(CCN6CCC(C(=O)OCCCP(=O)(O)O)CC6)CSc6ccccc6)c(S(=O)(=O)C(F)(F)F)c5)cc4)CC3)c2)c(-c2ccc(Cl)cc2)n1C(C)C
< 9.49 nM: IC50 (second compound 0.1 µM) | IC50 (second compound 0.316 µM) | IC50 (second compound 1 µM) | IC50 (second compound 3.16 µM) | IC50 (second compound 10 µM)
inactive: viability, T/C (second compound 0.1 µM, first compound 0.00949 µM) 49.6% | viability, T/C (second compound 0.1 µM, first compound 0.03 µM) 46.2% | viability, T/C (second compound 0.1 µM, first compound 0.0949 µM) 40.3% | viability, T/C (second compound 0.1 µM, first compound 0.3 µM) 26.5% | viability, T/C (second compound 0.1 µM, first compound 0.949 µM) 14.2% | viability, T/C (second compound 0.1 µM, first compound 3 µM) 13.8% | viability, T/C (second compound 0.316 µM, first compound 0.00949 µM) 42.4% | viability, T/C (second compound 0.316 µM, first compound 0.03 µM) 43.5% | viability, T/C (second compound 0.316 µM, first compound 0.0949 µM) 34.6% | viability, T/C (second compound 0.316 µM, first compound 0.3 µM) 23% | viability, T/C (second compound 0.316 µM, first compound 0.949 µM) 12.7% | viability, T/C (second compound 1 µM, first compound 0.00949 µM) 33.5% | viability, T/C (second compound 1 µM, first compound 0.03 µM) 33.9% | viability, T/C (second compound 1 µM, first compound 0.0949 µM) 38.6% | viability, T/C (second compound 1 µM, first compound 0.3 µM) 21.9% | viability, T/C (second compound 1 µM, first compound 0.949 µM) 17.7% | viability, T/C (second compound 1 µM, first compound 3 µM) 10.4% | viability, T/C (second compound 3.16 µM, first compound 0.00949 µM) 26.5% | viability, T/C (second compound 3.16 µM, first compound 0.03 µM) 47.5% | viability, T/C (second compound 3.16 µM, first compound 0.0949 µM) 26.4% | viability, T/C (second compound 3.16 µM, first compound 0.3 µM) 21.2% | viability, T/C (second compound 3.16 µM, first compound 0.949 µM) 16.8% | viability, T/C (second compound 10 µM, first compound 0.00949 µM) 33.3% | viability, T/C (second compound 10 µM, first compound 0.03 µM) 36% | viability, T/C (second compound 10 µM, first compound 0.0949 µM) 25.8% | viability, T/C (second compound 10 µM, first compound 0.3 µM) 23.6% | viability, T/C (second compound 10 µM, first compound 0.949 µM) 9.38%
active: viability, T/C (second compound 0.316 µM, first compound 3 µM) 9.74% | viability, T/C (second compound 3.16 µM, first compound 3 µM) 10.5% | viability, T/C (second compound 10 µM, first compound 3 µM) 6.34%

Reference: PubChem BioAssay AID1963434 (Molecular Pharmacology Branch, DTP, NCI, 2024)
